In patent US5064815A, “Primycin-containing colloidal basic gel” (Chinoin Gyogyszer es Vegyeszeti Termekek Gyara RT., priority 1985, dated 1991):
Structures can show the parent of a compound that is named as a salt. Where two headings read alike, the source gives them in different places.

Columns and labels:
[1] = Spontaneous gel-formation with solvents / with N-methyl-pyrrolidone / mixed gels; format: physicochemical
Description: We have studies spontaneous gel-formation with various solvents on the one hand and various pharmaceutical active ingredients on the other. The following solvents are used: methanol, ethanol, isopropanol, n-butanol, isobutanol, dichloromethane, chloroform, carbon tetrachloride, ethyl acetate, acetonitrile, n-hexane, petrol, benzene, toluene, petrolether, ether, dimethyl formamide, dimethyl sulfoxide, isopropyl myristate.
Furtheron gel-formation has been studied between N-methyl-pyrrolidone and further pharmaceutical active ingredients. The following active ingredients are used: gentamycin, doxycyclin, oxolinic acid, nalidixic acid, drotaverin, theophyllin, acetyl salicylic acid, papaverin, indomethacin.
We have studied furtheron the possibility of the preparation of mixed gels comprising two active ingredients, including antibiotics other then primycin (e.g. gentamicin, doxycyclin, oxytetracyclin, chloramphenicol etc.).

[2] = Solubility in N-methyl pyrrolidone; format: physicochemical; conditions: for Behaviour of heated N-methyl pyrrolidone solution on cooling: significant heating needed
Description: We have examined the quantity in ml of N-methyl-pyrrolidone which is necessary to dissolve 0.1 gram of each respective compound.

[3] = test system: acne; conditions: human, in vivo
[4] = test system: gram-positive bacteria; conditions: cited from earlier work

Compound: CCn1cc(C(=O)O)c(=O)c2cc3c(cc21)OCO3 [oxolinic acid]
- Gel formation with N-methyl-pyrrolidone [1]: None of the above active ingredients form a stable transparent gel
- Required amount of N-methyl pyrrolidone necessary to dissolve 0.1 g ([2]; (A) Room Temperature): does not dissolve
- Required amount of N-methyl pyrrolidone necessary to dissolve 0.1 g ([2]; (B) Under Heating): 8.0 milliliters
- Behaviour of heated N-methyl pyrrolidone solution on cooling [2]: precipitates after

Compound: gentamycin
- Gel formation with N-methyl-pyrrolidone [1]: None of the above active ingredients form a stable transparent gel

Compound: COc1ccc(Cc2nccc3cc(OC)c(OC)cc23)cc1OC [papaverin]
- Gel formation with N-methyl-pyrrolidone [1]: None of the above active ingredients form a stable transparent gel

Compound: [H]/N=C(/N)N[C@H]1[C@H](O)[C@@H](O)[C@H](O[C@@H]2O[C@@H](C)[C@](O)(C=O)[C@H]2O[C@@H]2O[C@@H](CO)[C@H](O)[C@@H](O)[C@@H]2NC)[C@@H](N/C(N)=N\[H])[C@@H]1O [Streptomycin Sulfate]
- Required amount of N-methyl pyrrolidone necessary to dissolve 0.1 g ([2]; (A) Room Temperature): 20.0 milliliters
- Required amount of N-methyl pyrrolidone necessary to dissolve 0.1 g ([2]; (B) Under Heating): does not dissolve

Compound: COc1ccc2c(c1)c(CC(=O)O)c(C)n2C(=O)c1ccc(Cl)cc1 [indomethacin]
- Gel formation with N-methyl-pyrrolidone [1]: None of the above active ingredients form a stable transparent gel

Compound: C[C@@H]1[C@H](O)[C@@H](C)/C=C/C=C/CC/C=C/C=C/C=C/C=C/C(O[C@H]2O[C@H](C)[C@@H](O)[C@H](N)[C@@H]2O)CC2O[C@](O)(CC(O)C(O)CCC(O)CC(O)CC(O)CC(=O)O[C@H]1C)CC(O)C2C(=O)O (stereo partly drawn) [Nystatin]
- Required amount of N-methyl pyrrolidone necessary to dissolve 0.1 g ([2]; (A) Room Temperature): 5.0 milliliters
- Required amount of N-methyl pyrrolidone necessary to dissolve 0.1 g ([2]; (B) Under Heating): 2.0 milliliters

Compound: [5-(18-(α-D-arabinofuranosyloxy)-2-butyl-3,7,11,15,19,21,23,25,27-nonahydroxy-4,16,32,34-tetramethyl-1-oxo-oxacyclohexatriaconta-16,32-dien-35- yl)-4-hydroxyhexyl]-guanidinium-sulfate [Primycin]
- Gel formation with N-methyl-pyrrolidone [1]: spontaneous gel-formation resulting in the formation of a stable transparent gel
- Pure gel formation with other solvents ([1]; ethanol amine, diethanol amine, triethanol amine, dimethyl formamide, dimethyl sulfoxide, 5-30%): pure gel is formed neither in the cold nor in the warm
- Stable gel formation with solvents ([1]; methanol, ethanol, isopropanol, n-butanol, isobutanol, dichloromethane, chloroform, carbon tetrachloride, ethyl acetate, acetonitrile, n-hexane, petrol, benzene, toluene, petrolether, ether, dimethyl formamide, dimethyl sulfoxide, isopropyl myristate): None of the above solvents forms a stable gel with primycin
- Solubility in N-methyl-pyrrolidone (in words) [2]: not easily dissolved
- Temperature-dependance of the solubility [2]: more than two orders of magnitude
- Required amount of N-methyl pyrrolidone necessary to dissolve 0.1 g ([2]; (A) Room Temperature): does not dissolve
- Required amount of N-methyl pyrrolidone necessary to dissolve 0.1 g ([2]; (B) Under Heating): 0.5 milliliters
- Precipitation from 1% solutions (1% solutions prepared under heating, on cooling): primycin precipitated upon cooling
- Solubility, dissolved material (methanol): 2 µg/mL
- Solubility, dissolved material (propylene glycol): 5 µg/mL
- Solubility, dissolved material (water): 0.05 µg/mL
- Absorption into the blood stream [3]: not to be absorbed by the blood stream
- Skin irritation on topical application [3]: severe irritation to the skin
- Toxicity upon entry into the bloodstream [3]: significantly toxic
- Effect in combination with other antibiotics ([4]; Hungarian patent No. 158,241): synergistic effect
- Antibacterial spectrum ([4]; prior art): particularly effective against gram-positive bacteria but active against polyresistant human pathogenic strains as well
- Resistance development ([4]; prior art): No resistance has developed

Compound: CCn1cc(C(=O)O)c(=O)c2ccc(C)nc21 [nalidixic acid]
- Gel formation with N-methyl-pyrrolidone [1]: None of the above active ingredients form a stable transparent gel
- Required amount of N-methyl pyrrolidone necessary to dissolve 0.1 g ([2]; (A) Room Temperature): does not dissolve
- Required amount of N-methyl pyrrolidone necessary to dissolve 0.1 g ([2]; (B) Under Heating): 6.0 milliliters
- Behaviour of heated N-methyl pyrrolidone solution on cooling [2]: precipitates after cooling

Compound: CCOc1ccc(/C=C2\NCCc3cc(OCC)c(OCC)cc32)cc1OCC [drotaverin]
- Gel formation with N-methyl-pyrrolidone [1]: None of the above active ingredients form a stable transparent gel

Compound: CC(=O)OCC(=O)[C@@]1(O)CC[C@H]2[C@@H]3CCC4=CC(=O)CC[C@]4(C)[C@H]3[C@@H](O)C[C@@]21C [Hydrocortisone-Acetate]
- Required amount of N-methyl pyrrolidone necessary to dissolve 0.1 g ([2]; (A) Room Temperature): 1.0 milliliters
- Required amount of N-methyl pyrrolidone necessary to dissolve 0.1 g ([2]; (B) Under Heating): 0.2 milliliters

Compound: Cn1c(=O)c2[nH]cnc2n(C)c1=O [theophyllin]
- Gel formation with N-methyl-pyrrolidone [1]: None of the above active ingredients form a stable transparent gel

Compound: CCCSc1ccc2nc(NC(=O)OC)[nH]c2c1 [Albendazole]
- Required amount of N-methyl pyrrolidone necessary to dissolve 0.1 g ([2]; (A) Room Temperature): 1.5 milliliters
- Required amount of N-methyl pyrrolidone necessary to dissolve 0.1 g ([2]; (B) Under Heating): 1.0 milliliters

Compound: CC(=O)Oc1ccccc1C(=O)O [acetyl salicylic acid]
- Gel formation with N-methyl-pyrrolidone [1]: None of the above active ingredients form a stable transparent gel

Compound: C[C@H]1c2cccc(O)c2C(O)=C2C(=O)[C@]3(O)C(O)=C(C(N)=O)C(=O)[C@@H](N(C)C)[C@@H]3[C@@H](O)[C@@H]21 [doxycyclin]
- Gel formation with N-methyl-pyrrolidone [1]: None of the above active ingredients form a stable transparent gel
- Required amount of N-methyl pyrrolidone necessary to dissolve 0.1 g ([2]; (A) Room Temperature): 10.0 milliliters
- Required amount of N-methyl pyrrolidone necessary to dissolve 0.1 g ([2]; (B) Under Heating): 2.0 milliliters
